Several values for one entry are separate records, joined by “and”; a condition that tells them apart may be missing. Identical values can stand only once.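 Five concentrations, 48 hours, 96-well plates. GI50 = concentration required for 50% inhibition of growth. TGI denotes the concentration required for complete inhibition of growth.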

This passage reports TGI and GI50 results from PubChem BioAssay (NCI).

Holding throughout (assay): NCI-60 cell line screen, 48 h
In assay [1] the test system is HS 578T breast.
Assay [2] has as its system 786-0 renal.
In assay [3] the test system is HOP-62 NSCLC.
Assay [4] concerns SR leukemia.
Assay [5] has as its system KM12 colon.
The test system of assay [6] is RPMI-8226 leukemia.
The test system of assay [7] is UACC-257 melanoma.
Assay [8] deals with SK-MEL-5 melanoma.
Assay [9] concerns HT29 colon.
Assay [10] has as its system MALME-3M melanoma.
Assay [11] relates to NCI-H460 lung.

Consider `C[C@@H]1C[C@@H]2OC(=O)[C@]3(C)[C@H]2[C@@H](OC3(C)O)[C@]2(C)C(=O)C=C[C@@H]12` (some centres not stated), for which the TGI in [1] is greater than 100 µM; in [2], greater than 100 µM; in assay [3], greater than 100 µM; in assay [4] it was 28.5 µM; in assay [5], 58.7 µM; in assay [6] it was 17.7 µM. In addition, the TGI in assay [7] worked out at 50.2 µM; in assay [8], 51.2 µM; in [9], 35.1 µM; in [10], 30.7 µM.
With `CC12CC(c3ccccc3O1)C(C(=O)Nc1nccs1)C(=O)N2` (configuration not stated), the TGI in [1], in assay [2], in [3], in assay [11], in assay [5] and in assay [6] was greater than 100 µM each time. Further, the TGI in assay [7], in assay [8], in [9] and in assay [10] was greater than 100 µM in each case.
For the molecule `CCOC(=O)/C=C(/C(=O)OCC)n1cc(C)c(=O)n(Cc2cn(CCCCOC(C)=O)nn2)c1=O`, the TGI in assay [1] is 59 µM; in assay [2], greater than 100 µM; in assay [3], greater than 100 µM; in [11], 34.1 µM; in [4] it was 62.4 µM; in assay [5], 29.5 µM. Also, the TGI is 25.6 µM in [6], 36.8 µM in assay [7], greater than 100 µM in assay [8] and 20.5 µM in assay [9].
For the molecule `CSCCC(NC(=O)C(Cc1c[nH]c2ccccc12)NC(=O)CCNC(=O)OC(C)(C)C)C(=O)NC(CC(=O)O)C(=O)NC(Cc1ccccc1)C(N)=O` (configuration not stated), the TGI in [1], in assay [2], in [3], in [5], in assay [6] and in assay [7] was greater than 50 µM throughout. For the same molecule, the TGI in [8] and in assay [9] was greater than 50 µM throughout.
Consider `CCOC(=O)c1c(SC(=O)c2ccc(Cl)cc2)n(-c2ccccc2)c(=S)n(-c2ccccc2)c1=O`, for which the TGI in assay [1], in assay [2], in assay [3], in assay [11], in [4] and in [5] was greater than 100 µM throughout. Also, the TGI in [7], in [9] and in [10] was greater than 100 µM throughout.
For `COc1ccc(Cn2c(=O)c(OS(=O)(=O)C(F)(F)F)c(C)c3cc4ccccc4cc32)cc1`, the TGI in [1], in assay [2], in assay [3], in assay [11], in [4] and in assay [5] was greater than 100 µM in each case. In addition, the TGI in [7], in assay [8], in [9] and in [10] was greater than 100 µM each time.
For `O=S1(=O)N=C(SCc2c[nH]c3ccccc23)N(c2ccccc2)c2ccncc21`, the TGI is greater than 100 µM in [1]; 65.5 µM in [2]; greater than 100 µM in assay [3]; greater than 100 µM in assay [11]; greater than 100 µM in assay [4]; greater than 100 µM in assay [5]. The TGI in [7], in assay [8], in [9] and in [10] was greater than 100 µM in each case.
`O=C(CCC(NC(=O)OCc1ccccc1)C(=O)OCc1ccccc1)Nc1cccc(OCc2ccccc2)c1` (configuration not stated): the TGI is 39.4 µM in assay [1]; 33.2 µM in assay [2]; 60.1 µM in [3]; 53.3 µM in assay [11]; 65.5 µM in assay [4]; greater than 100 µM in assay [5]. Also, the figures for the TGI in assay [7], in [9] and in assay [10] were 55 µM, 70.9 µM and 56.4 µM, respectively.
As for `O=C(NNC(=O)c1ccncc1)C(=O)Nc1cc(Cl)c(Cl)cc1Cl`, the TGI in assay [1], in assay [2], in assay [3], in assay [11], in [5] and in assay [6] was greater than 100 µM in each case. Moreover, the TGI in [7], in assay [8], in assay [9] and in [10] was greater than 100 µM throughout.
As to `CC(C)=CC(=O)OC1C2C(C)=CC(=O)C(O)C2(C)C2C3(O)OCC24C(CC(=O)OC14)C(C)C3O` (configuration not stated), the TGI in assay [1] was 0.00523 µM; in [2], 0.0834 µM; in assay [3] it was 0.0504 µM and 0.0103 µM and 0.0948 µM; in assay [11], 0.0298 µM and 0.0334 µM; in assay [6] it was 0.028 µM and 0.0291 µM; in assay [7], 0.0436 µM and 0.0432 µM. Further, the TGI in assay [8] was 0.01 µM and 0.0209 µM; in [9] it was 0.0449 µM and 0.0146 µM and 0.137 µM; in assay [10] it was 0.0136 µM. Moreover, the GI50 was 0.0315 µM in assay [3]; 0.00788 µM in [11]; 0.0209 µM in [5]; 0.02 µM in assay [6]; 0.02 µM in assay [7]; 0.02 µM in [8]. Also, the GI50 in assay [9] was 0.0302 µM; in assay [10], 0.00475 µM.
As for `Cc1c2oc(=O)c(C#N)cc2c2ccccn12`, the TGI in assay [1], in [2], in assay [11], in [4], in assay [5] and in assay [6] was greater than 100 µM in each case. Moreover, the TGI in [7], in [8], in assay [9] and in [10] was greater than 100 µM each time.
In the case of `Nc1ccnc2c1ncn2[C@H]1C[C@H](O)[C@@H](CO)O1`, the TGI in assay [1], in assay [2], in [3], in [11], in assay [4] and in assay [5] was greater than 100 µM in each case. Further, the TGI in assay [7], in [8] and in [9] was greater than 100 µM each time.
As to `Clc1cc(Cl)nc(Nc2ccc3c(c2)CCC3)n1`, the TGI in assay [1] was greater than 100 µM; in [2] it was greater than 100 µM; in assay [11], greater than 100 µM; in assay [4], 77.6 µM; in assay [5] it was 59.1 µM; in assay [6], 42 µM. In addition, the TGI in assay [7] was greater than 100 µM; in [8], 57.5 µM; in assay [9] it was 51.5 µM; in assay [10], 93.3 µM.
